Patent US11104690B2, “Indazole derivatives useful as inhibitors of diacylglyceride O-acyltransferase 2” (Merck Sharp & Dohme Corp., priority 2016, dated 2021)

Target: Human DGAT2 (Homo sapiens (Human), UniProt Q96PD7)
Assay: DGAT2 Enzymatic Activity Assay (triolein formation, LC/MS/MS)
Format: biochemical
Conditions: hDGAT2 Sf-9 membrane prep; 25 μM diolein, 10 μM oleoyl-CoA; room temperature
Method in brief: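 Membranes from Sf-9 cells infected with untagged hDGAT2 baculovirus, 10 ng/μL, at room temperature in 100 mM Tris.Cl pH 7.0, 20 mM MgCl2, 5% ethanol with 25 μM diolein and 10 μM oleoyl-CoA. Triolein quantified by LC/MS/MS against spiked internal standard; IC50 from 4-parameter sigmoidal fit.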

Human DGAT2, sequence (Q96PD7 whole entry): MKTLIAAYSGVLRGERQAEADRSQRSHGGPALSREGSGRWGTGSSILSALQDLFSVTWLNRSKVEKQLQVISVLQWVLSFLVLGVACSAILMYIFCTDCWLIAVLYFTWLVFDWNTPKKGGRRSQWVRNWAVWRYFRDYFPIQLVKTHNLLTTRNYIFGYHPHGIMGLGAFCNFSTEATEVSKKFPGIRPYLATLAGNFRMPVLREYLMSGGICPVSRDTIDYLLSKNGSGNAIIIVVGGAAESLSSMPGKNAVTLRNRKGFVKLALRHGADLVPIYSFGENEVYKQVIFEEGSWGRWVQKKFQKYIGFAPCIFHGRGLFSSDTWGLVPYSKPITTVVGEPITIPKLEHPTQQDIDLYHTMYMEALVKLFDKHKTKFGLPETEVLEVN

Compared with CC1(NC(=O)c2ccc3c(-c4ccccc4Cl)nn(-c4ccc(F)cc4)c3c2)CCS(=O)(=O)C1 (single isomer, unassigned) [Example 1-B, 3-(2-chlorophenyl)-1-(4-fluorophenyl)-N-(3-methyl-1,1-dioxidotetrahydrothiophen-3-yl)-1H-indazole-6-carboxamide], COC(=O)C1(NC(=O)c2ccc3c(-c4ccccc4Cl)nn(-c4ccc(F)cc4)c3c2)CCS(=O)(=O)C1 (racemic) [Example 90, methyl 3-({[3-(2-chlorophenyl)-1-(4-fluorophenyl)-1H-indazol-6-yl]carbonyl}amino)tetra-hydrothiophene-3-carboxylate 1,1-dioxide] is 11-fold higher in IC50: 8.3 nM for the first, 90 nM for the second. The first is the more potent here.

Going from COCCNC(=O)c1ccc2c(-c3ccccc3Cl)nn(-c3ccc(F)cc3)c2c1 [Example 45, 3-(2-chlorophenyl)-1-(4-fluorophenyl)-N-(2-methoxyethyl)-1H-indazole-6-carboxamide] to CC(CO)(CO)NC(=O)c1ccc2c(-c3ccccc3Cl)nn(-c3ccc(F)cc3)c2c1 [Example 46, 3-(2-chlorophenyl)-1-(4-fluorophenyl)-N-[2-hydroxy-1-(hydroxymethyl)-1-methylethyl]-1H-indazole-6-carboxamide], the IC50 falls from 424 nM to 49 nM (8.7-fold). The second is the more potent here.

O=C(NCc1cncnc1)c1ccc2c(-c3ccccc3Cl)nn(-c3ccc(F)cc3)c2c1 [Example 38, 3-(2-chlorophenyl)-1-(4-fluorophenyl)-N-(pyrimidin-5-ylmethyl)-1H-indazole-6-carboxamide] and O=C(NCc1cccnc1)c1ccc2c(-c3ccccc3Cl)nn(-c3ccc(F)cc3)c2c1 [Example 31, 3-(2-chlorophenyl)-1-(4-fluorophenyl)-N-(pyridin-3-ylmethyl)-1H-indazole-6-carboxamide] are within 1.5-fold of each other in IC50: 368 nM for the first, 320 nM for the second.

Going from O=C(NC1CCS(=O)(=O)C1)c1ccc2c(-c3cccc(C4CC4)c3)nn(-c3ccc(F)cn3)c2c1 (single isomer, unassigned) [Example 126-A, 3-(3-cyclopropylphenyl)-N-(1,1-dioxidotetrahydrothiophen-3-yl)-1-(5-fluoropyridin-2-yl)-1H-indazole-6-carboxamide] to CC1(NC(=O)c2ccc3c(-c4cccc(C5CC5)c4)nn(-c4ccc(F)cn4)c3c2)CCS(=O)(=O)C1 (single isomer, unassigned) [Example 125-A, 3-(3-cyclopropylphenyl)-1-(5-fluoropyridin-2-yl)-N-(3-methyl-1,1-dioxidotetrahydrothiophen-3-yl)-1H-indazole-6-carboxamide], the IC50 falls from 11 nM to 4.2 nM (2.6-fold).

C[C@H](NC(=O)c1ccc2c(-c3ccccc3Cl)nn(-c3ccc(F)cc3)c2c1)c1ccc(C(F)(F)F)nc1 [Example 13, 3-(2-chlorophenyl)-1-(4-fluorophenyl)-N-{(1S)-1-[6-(trifluoromethyl)pyridin-3-yl]ethyl}-1H-indazole-6-carboxamide] and O=C(N[C@@H](CO)c1ccc(C(F)(F)F)nc1)c1ccc2c(-c3ccccc3Cl)nn(-c3ccc(F)cc3)c2c1 [Example 30, 3-(2-chlorophenyl)-1-(4-fluorophenyl)-N-{(1R)-2-hydroxy-1-[6-(trifluoromethyl)pyridin-3-yl]ethyl}-1H-indazole-6-carboxamide] are the same in IC50: 48 nM for the first, 48 nM for the second.

Compared with COc1cc(-c2nn(-c3ccc(F)cc3)c3cc(C(=O)NC4(C)CCS(=O)(=O)C4)ccc23)ccn1 (single isomer, unassigned) [Example 140-A, 1-(4-fluorophenyl)-3-(2-methoxypyridin-4-yl)-N-(3-methyl-1,1-dioxidotetrahydrothiophen-3-yl)-1H-indazole-6-carboxamide], CC1(NC(=O)c2ccc3c(-c4cccc(Cl)c4)nn(-c4ccc(F)cc4)c3c2)CCS(=O)(=O)C1 (single isomer, unassigned) [Example 158-A, 3-(3-chlorophenyl)-1-(4-fluorophenyl)-N-(3-methyl-1,1-dioxidotetrahydrothiophen-3-yl)-1H-indazole-6-carboxamide] is 15-fold lower in IC50: 455 nM for the first, 31 nM for the second. The second is the more potent here.

Compared with O=C(NC1(CO)CCc2ccccc21)c1ccc2c(-c3ccccc3Cl)nn(-c3ccc(F)cc3)c2c1 (racemic) [Example 75, 3-(2-chlorophenyl)-1-(4-fluorophenyl)-N-[1-(hydroxymethyl)-2,3-dihydro-1H-inden-1-yl]-1H-indazole-6-carboxamide], O=C(N[C@H](CO)c1ccccc1)c1ccc2c(-c3ccccc3Cl)nn(-c3ccc(F)cc3)c2c1 [Example 82, 3-(2-chlorophenyl)-1-(4-fluorophenyl)-N-[(1S)-2-hydroxy-1-phenylethyl]-1H-indazole-6-carboxamide] is 9.9-fold lower in IC50: 357 nM for the first, 36 nM for the second.

Going from O=C(NCCS(=O)(=O)NCc1ccccc1)c1ccc2c(-c3ccccc3Cl)nn(-c3ccc(F)cc3)c2c1 [Example 54, N-[2-(benzylsulfamoyl)ethyl]-3-(2-chlorophenyl)-1-(4-fluorophenyl)-1H-indazole-6-carboxamide] to O=C(NCCS(=O)(=O)Nc1cccnc1)c1ccc2c(-c3ccccc3Cl)nn(-c3ccc(F)cc3)c2c1 [Example 60, 3-(2-chlorophenyl)-1-(4-fluorophenyl)-N-[2-(pyridin-3-ylsulfamoyl)ethyl]-1H-indazole-6-carboxamide], the IC50 falls from 121 nM to 16 nM (7.6-fold). The second is the more potent here.

Going from N#Cc1cccc(-c2nn(-c3ccc(F)cc3)c3cc(C(=O)NC4CCS(=O)(=O)C4)ccc23)c1 (single isomer, unassigned) [Example 129-A] to CC1(NC(=O)c2ccc3c(-c4cc(C#N)ccc4Cl)nn(-c4ccc(F)cc4)c3c2)CCS(=O)(=O)C1 (single isomer, unassigned) [Example 119-B, 3-(2-chloro-5-cyanophenyl)-1-(4-fluorophenyl)-N-(3-methyl-1,1-dioxidotetrahydrothiophen-3-yl)-1H-indazole-6-carboxamide], the IC50 falls from 10 nM to 2.5 nM (4-fold). The second is the more potent here.

First: CC1(NC(=O)c2ccc3c(-c4ccccc4Cl)nn(-c4cscn4)c3c2)CCS(=O)(=O)C1 (centres unmarked) [Example 179, 3-(2-Chlorophenyl)-N-(3-methyl-1,1-dioxidotetrahydrothiophen-3-yl)-1-(thiazol-4-yl)-1H-indazole-6-carboxamide]
Second: CC1(NC(=O)c2ccc3c(-c4ccccc4Cl)nn(-c4ccc(F)cn4)c3c2)CCS(=O)(=O)C1 (single isomer, unassigned) [Example 172-A]
The IC50 of the first is 7.3-fold higher: 285 nM for the first, 39 nM for the second.

First: CC(O)CC(C)(C)NC(=O)c1ccc2c(-c3ccccc3Cl)nn(-c3ccc(F)cc3)c2c1 (racemic) [Example 113, 3-(2-chlorophenyl)-1-(4-fluorophenyl)-N-(3-hydroxy-1,1-dimethylbutyl)-1H-indazole-6-carboxamide]
Second: CC(C)[C@H](NC(=O)c1ccc2c(-c3ccccc3Cl)nn(-c3ccc(F)cc3)c2c1)C(N)=O [Example 95, N-[(1S)-1-carbamoyl-2-methylpropyl]-3-(2-chlorophenyl)-1-(4-fluorophenyl)-1H-indazole-6-carboxamide]
The IC50 of the first is 15-fold lower: 41 nM for the first, 606 nM for the second.

Going from C[C@H](NC(=O)c1ccc2c(-c3ccccc3Cl)nn(-c3ccc(F)cc3)c2c1)c1cnc(C(F)(F)F)nc1 [Example 50, 3-(2-chlorophenyl)-1-(4-fluorophenyl)-N-{(1S)-1-[2-(trifluoromethyl)pyrimidin-5-yl]ethyl}-1H-indazole-6-carboxamide] to CC(C)(NC(=O)c1ccc2c(-c3ccccc3Cl)nn(-c3ccc(F)cc3)c2c1)c1ccc(C(F)(F)F)nc1 [Example 28, 3-(2-chlorophenyl)-1-(4-fluorophenyl)-N-{1-methyl-1-[6-(trifluoromethyl)pyridin-3-yl]ethyl}-1H-indazole-6-carboxamide], the IC50 rises from 34 nM to 93 nM (2.7-fold).

Going from O=C(NCC1CCS(=O)(=O)C1)c1ccc2c(-c3ccccc3Cl)nn(-c3ccc(F)cc3)c2c1 (racemic) [Example 29, 3-(2-chlorophenyl)-N-[(1,1-dioxidotetrahydrothiophen-3-yl)methyl]-1-(4-fluorophenyl)-1H-indazole-6-carboxamide] to O=C(NC1CCNC1=O)c1ccc2c(-c3ccccc3Cl)nn(-c3ccc(F)cc3)c2c1 (racemic) [Example 52, 3-(2-chlorophenyl)-1-(4-fluorophenyl)-N-(2-oxopyrrolidin-3-yl)-1H-indazole-6-carboxamide], the IC50 rises from 65 nM to 413 nM (6.4-fold). The first is the more potent here.

Going from Cc1nnc(-c2cccc(-c3nn(-c4ccc(F)cc4)c4cc(C(=O)NC5(C)CCS(=O)(=O)C5)ccc34)c2)o1 (racemic) [Example 164, 1-(4-fluorophenyl)-N-(3-methyl-1,1-dioxidotetrahydrothiophen-3-yl)-3-[3-(5-methyl-1,3,4-oxadiazol-2-yl)phenyl]-1H-indazole-6-carboxamide] to CC1(NC(=O)c2ccc3c(-c4cncc(F)c4)nn(-c4ccc(F)cc4)c3c2)CCS(=O)(=O)C1 (single isomer, unassigned) [Example 153-A, 1-(4-fluorophenyl)-3-(5-fluoropyridin-3-yl)-N-(3-methyl-1,1-dioxidotetrahydrothiophen-3-yl)-1H-indazole-6-carboxamide], the IC50 rises from 28 nM to 90 nM (3.2-fold).

First: O=C(NCc1cnsn1)c1ccc2c(-c3ccccc3Cl)nn(-c3ccc(F)cc3)c2c1 [Example 40, 3-(2-chlorophenyl)-1-(4-fluorophenyl)-N-(1,2,5-thiadiazol-3-ylmethyl)-1H-indazole-6-carboxamide]
Second: Cc1n[nH]c(C)c1C(C)NC(=O)c1ccc2c(-c3ccccc3Cl)nn(-c3ccc(F)cc3)c2c1 (racemic) [Example 17, 3-(2-chlorophenyl)-N-[1-(3,5-dimethyl-1H-pyrazol-4-yl)ethyl]-1-(4-fluorophenyl)-1H-indazole-6-carboxamide]
The IC50 of the first is 5.4-fold higher: 445 nM for the first, 83 nM for the second.

Compared with Cc1ccc(-n2nc(-c3ccccc3Cl)c3ccc(C(=O)NC4(C)CCS(=O)(=O)C4)cc32)nc1 (racemic) [Example 185, 3-(2-chlroophenyl)-N-(3-methyl-1,1-dioxidotetrahydrothiophen-3-yl)-1-(5-methylpyridin-2-yl)-1H-indazole-6-carboxamide], COC(=O)C1(NC(=O)c2ccc3c(-c4ccccc4Cl)nn(-c4ccc(F)cc4)c3c2)CCSC1 (racemic) [Example 59, methyl 3-({[3-(2-chlorophenyl)-1-(4-fluorophenyl)-1H-indazol-6-yl]carbonyl}amino)tetra-hydrothiophene-3-carboxylate] is 49-fold higher in IC50: 9.5 nM for the first, 461 nM for the second.
